# Like-named read-outs stand apart in the source and are kept apart here.
# Key:
# ALK = target: T1, ALK (Homo sapiens, UniProt Q9UM73); assay: ALK Kinase Assay (ELISA/TRF, PLC-γ substrate); assay type: biochemical; conditions: read-out: ALK Potency
# T1 construct: host or cells: baculovirus expression system
# Experimental: Briefly, each 96-well plate was coated with […] of 10 μg/mL substrate (phospholipase C-γ) in Tris-buffered saline (TBS). […] The reaction was initiated by adding enzyme (30 ng/ml ALK) and was allowed to proceed at 37° C. for 15 minutes. Detection of the phosphorylated product was performed by adding 100 μl/well of Eu—N1 labeled PT66 antibody (Perkin Elmer # AD0041).
# Data analysis was performed using ActivityBase (IDBS, Guilford, UK). IC50 values were calculated by plotting percent inhibition versus log10 of the concentration of compound and fitting to the nonlinear regression sigmoidal dose-response (variable slope) equation in XLFit (IDBS, Guilford, UK).
# JAK2 = target: T2, JAK2 (Homo sapiens, UniProt O60674); assay: Recombinant Human JAK2 Kinase Assay (TRF); assay type: biochemical; conditions: read-out: JAK2 Potency
# T2 construct: host or cells: baculovirus expression system
# Experimental: Compounds were tested for their ability to inhibit the kinase activity of baculovirus-expressed JAK2 using the TRF detection system. […] The plates were coated first with 100 μL/well of 10 μg/mL Neutravidin (Pierce #31000, Rockford, Ill.) in TBS at 37° C. for 2 hours, followed by 100 μL/well of 1 μg/mL 15-mer peptide substrate (biotinyl-amino-hexanoyl-[…]-amide, Infinity Biotech Research and Resource, Aston, Pa.) at 37° C. for another hour. The JAK2 assay mixture (total volume=100 μL/well) consisting of 20 mM HEPES (pH 7.2), 0.2 μM ATP, 1 mM MnCl2, 0.1% BSA, and test compound (diluted in DMSO; 2.5% DMSO final in assay) was then added to the assay plate. Enzyme (15 ng/ml JAK2) was added and the reaction was allowed to proceed at room temperature for 20 minutes. Detection of the phosphorylated product was performed by adding 100 μL/well of Eu—N1 labeled PY100 antibody (PerkinElmer Life Sciences #AD0041, Boston, Mass.).
# [1] = ALK kinase inhibition, 1 μM ATP
# [2] = JAK2 kinase inhibition, 0.2 μM ATP
# T1 sequence (Q9UM73 19-1620): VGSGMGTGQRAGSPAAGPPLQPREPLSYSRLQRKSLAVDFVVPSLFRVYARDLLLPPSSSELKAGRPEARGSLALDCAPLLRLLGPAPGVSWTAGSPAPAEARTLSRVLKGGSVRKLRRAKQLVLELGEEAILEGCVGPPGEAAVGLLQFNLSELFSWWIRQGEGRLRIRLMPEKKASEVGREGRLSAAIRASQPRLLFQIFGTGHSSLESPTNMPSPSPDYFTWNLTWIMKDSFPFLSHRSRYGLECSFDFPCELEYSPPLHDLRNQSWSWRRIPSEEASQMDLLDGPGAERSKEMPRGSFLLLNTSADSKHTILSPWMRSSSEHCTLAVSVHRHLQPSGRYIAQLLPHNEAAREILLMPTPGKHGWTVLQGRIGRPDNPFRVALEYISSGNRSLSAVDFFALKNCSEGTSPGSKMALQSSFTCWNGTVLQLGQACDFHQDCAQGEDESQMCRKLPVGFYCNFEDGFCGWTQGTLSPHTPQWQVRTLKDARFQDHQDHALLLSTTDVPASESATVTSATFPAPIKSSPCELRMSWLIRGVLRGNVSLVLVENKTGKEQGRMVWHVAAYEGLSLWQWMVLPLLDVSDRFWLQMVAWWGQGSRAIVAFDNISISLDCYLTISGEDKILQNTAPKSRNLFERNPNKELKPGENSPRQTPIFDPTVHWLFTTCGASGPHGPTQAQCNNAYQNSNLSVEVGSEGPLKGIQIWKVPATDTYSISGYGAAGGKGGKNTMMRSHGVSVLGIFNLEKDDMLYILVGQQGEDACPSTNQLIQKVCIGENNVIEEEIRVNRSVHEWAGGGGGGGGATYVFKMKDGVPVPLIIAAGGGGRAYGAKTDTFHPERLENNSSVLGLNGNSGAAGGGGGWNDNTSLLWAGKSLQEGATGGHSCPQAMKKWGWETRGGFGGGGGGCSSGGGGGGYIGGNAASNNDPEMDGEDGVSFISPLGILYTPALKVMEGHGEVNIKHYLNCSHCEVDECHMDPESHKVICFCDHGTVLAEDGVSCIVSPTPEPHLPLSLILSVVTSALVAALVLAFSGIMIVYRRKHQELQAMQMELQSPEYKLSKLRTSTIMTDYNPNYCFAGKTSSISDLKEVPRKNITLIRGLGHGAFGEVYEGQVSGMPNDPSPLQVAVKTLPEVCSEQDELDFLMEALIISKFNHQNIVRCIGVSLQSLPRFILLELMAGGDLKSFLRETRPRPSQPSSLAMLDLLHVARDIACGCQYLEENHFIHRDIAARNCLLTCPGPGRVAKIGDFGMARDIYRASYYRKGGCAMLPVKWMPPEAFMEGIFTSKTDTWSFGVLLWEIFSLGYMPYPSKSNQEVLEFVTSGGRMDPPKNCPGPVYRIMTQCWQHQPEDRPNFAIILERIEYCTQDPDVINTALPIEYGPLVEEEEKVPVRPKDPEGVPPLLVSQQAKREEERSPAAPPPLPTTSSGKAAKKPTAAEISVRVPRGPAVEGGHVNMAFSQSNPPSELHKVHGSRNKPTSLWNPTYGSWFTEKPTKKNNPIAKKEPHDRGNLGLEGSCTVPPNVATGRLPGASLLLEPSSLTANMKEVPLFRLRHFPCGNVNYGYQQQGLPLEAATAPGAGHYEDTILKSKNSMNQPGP
# T2 sequence (O60674 whole entry): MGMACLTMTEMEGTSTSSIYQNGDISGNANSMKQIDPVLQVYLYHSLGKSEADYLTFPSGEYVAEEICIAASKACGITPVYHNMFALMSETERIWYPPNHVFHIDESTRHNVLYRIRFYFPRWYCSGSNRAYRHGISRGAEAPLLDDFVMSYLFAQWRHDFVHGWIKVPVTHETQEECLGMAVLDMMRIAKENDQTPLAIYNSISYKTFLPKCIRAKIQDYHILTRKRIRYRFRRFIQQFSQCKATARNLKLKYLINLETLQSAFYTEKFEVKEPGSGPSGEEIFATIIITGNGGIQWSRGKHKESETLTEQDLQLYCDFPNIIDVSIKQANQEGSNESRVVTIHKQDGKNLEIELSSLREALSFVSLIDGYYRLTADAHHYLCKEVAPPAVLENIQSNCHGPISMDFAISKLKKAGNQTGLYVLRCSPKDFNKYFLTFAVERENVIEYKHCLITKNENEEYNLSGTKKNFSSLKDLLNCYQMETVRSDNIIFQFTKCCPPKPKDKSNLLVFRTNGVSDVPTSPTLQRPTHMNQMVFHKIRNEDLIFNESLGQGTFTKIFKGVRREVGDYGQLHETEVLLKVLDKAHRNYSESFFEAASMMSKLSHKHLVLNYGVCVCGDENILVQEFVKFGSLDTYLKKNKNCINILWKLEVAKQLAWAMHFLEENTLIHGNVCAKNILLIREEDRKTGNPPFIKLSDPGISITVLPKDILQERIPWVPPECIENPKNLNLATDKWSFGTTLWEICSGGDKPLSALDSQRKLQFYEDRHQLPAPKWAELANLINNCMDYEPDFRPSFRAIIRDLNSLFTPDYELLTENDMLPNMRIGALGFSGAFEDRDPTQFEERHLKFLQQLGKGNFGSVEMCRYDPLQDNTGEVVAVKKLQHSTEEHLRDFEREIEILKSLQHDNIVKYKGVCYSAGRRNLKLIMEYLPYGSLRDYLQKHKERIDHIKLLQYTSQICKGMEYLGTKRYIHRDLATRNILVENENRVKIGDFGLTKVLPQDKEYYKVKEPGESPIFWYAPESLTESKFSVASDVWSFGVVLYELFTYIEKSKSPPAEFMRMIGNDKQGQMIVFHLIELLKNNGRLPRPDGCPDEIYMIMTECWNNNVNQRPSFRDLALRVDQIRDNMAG
Molecule,IC50 (ALK; [1]) [nM],IC50 (JAK2; [2]) [nM],IC50 (ALK; ALK Kinase Inhibition) [nM],IC50 (JAK2; JAK2 Kinase Inhibition) [nM]
"N-{2-[2-(1-Methyl-2-oxo-2,3,4,5-tetrahydro-1H-benzo[b]azepin-7-ylamino)pyrrolo[2,1-f][1,2,4]triazin-7-yl]-phenyl}methanesulfonamide [Example 625]",100 to 1000,< 100,–,–
"CS(=O)(=O)c1cccc(-c2ccc3cnc(Nc4ccc(C5CCN(CC(N)=O)CC5)cc4)nn23)c1 [Example 1434, 2-(4-{4-[7-(3-Methanesulfonyl-phenyl)-pyrrolo[2,1-f][1,2,4]triazin-2-ylamino]-phenyl}-piperidin-1-yl)-acetamide]",–,–,100 to 1000,< 100
COc1cc(C2CCN(C)CC2)ccc1Nc1ncc2ccc(-c3cccc(S(=O)(=O)NC4CC4)c3)n2n1 [Example 696],< 100,100 to 1000,–,–
"COc1cc2c(cc1Nc1ncc3ccc(-c4ccccc4N(C)S(C)(=O)=O)n3n1)CN(CC(N)=O)C2 [Example 869, 2-(5-{7-[2-(Methanesulfonyl-methyl-amino)-phenyl]-pyrrolo[2,1-f][1,2,4]triazin-2-ylamino}-6-methoxy-1,3-dihydro-isoindol-2-yl)-acetamide]",< 100,100 to 1000,–,–
"CS(=O)(=O)c1ccc(-c2ccc3cnc(Nc4ccc(N5CCCC(N6CCOCC6)C5)cc4)nn23)cc1 (stereo not drawn) [Example 346, [7-(4-Methanesulfonyl-phenyl)-pyrrolo[2,1-f][1,2,4]triazin-2-yl]-[4-(3-morpholin-4-yl-piperidin-1-yl)-phenyl]-amine]",–,–,100 to 1000,< 100
"CN1CCN(c2ccc(Nc3ncc4ccc(-c5ccccc5NS(C)(=O)=O)n4n3)cc2)CC1 [Example 429, N-(2-{2-[4-(4-Methyl-piperazin-1-yl)-phenylamino]-pyrrolo[2,1-f][1,2,4]triazin-7-yl}-phenyl)-methanesulfonamide]",–,–,100 to 1000,< 100
"COc1cc(N2CCN(C[C@@H](C)O)CC2)ccc1Nc1ncc2ccc(-c3cc(Cl)ccc3OC)n2n1 [Example 756, (R)-1-(4-{4-[7-(5-Chloro-2-methoxy-phenyl)-pyrrolo[2,1-f][1,2,4]triazin-2-ylamino]-3-methoxy-phenyl}-piperazin-1-yl)-propan-2-ol]",< 100,< 100,–,–
"CN(c1ccccc1-c1ccc2cnc(Nc3ccncc3)nn12)S(C)(=O)=O [Example 1364, N-Methyl-N-{2-[2-(pyridin-4-ylamino)-pyrrolo[2,1-f][1,2,4]triazin-7-yl]-phenyl}-methanesulfonamide]",1000 to 10000,< 100,–,–
"CC(=O)N1CCCC(C)(C)c2ccc(Nc3ncc4ccc(-c5ccccc5N(C)S(C)(=O)=O)n4n3)cc21 [Example 1366, N-{2-[2-(1-Acetyl-5,5-dimethyl-2,3,4,5-tetrahydro-1H-benzo[b]azepin-8-ylamino)-pyrrolo[2,1-f][1,2,4]triazin-7-yl]-phenyl}-N-methyl-methanesulfonamide]",–,–,100 to 1000,< 100
"COc1cc(C2CCNCC2)ccc1Nc1ncc2ccc(N3CC(c4ccccc4)CC3=O)n2n1 (stereo not drawn) [Example 719, 1-[2-(2-Methoxy-4-piperidin-4-yl-phenylamino)-pyrrolo[2,1-f][1,2,4]triazin-7-yl]-4-phenyl-pyrrolidin-2-one]",100 to 1000,1000 to 10000,–,–
"CN1CCN(c2ccc(Nc3ncc4ccc(-c5ccc(C=O)o5)n4n3)cc2)CC1 [Example 1196, 5-{2-[4-(4-Methyl-piperazin-1-yl)-phenylamino]-pyrrolo[2,1-f][1,2,4]triazin-7-yl}-furan-2-carbaldehyde]",100 to 1000,< 100,–,–
"C[C@H](O)CN1CCC(c2ccc(Nc3ncc4ccc(-c5cccc(S(C)(=O)=O)c5)n4n3)cc2)CC1 [Example 1431, (S)-1-(4-{4-[7-(3-Methanesulfonyl-phenyl)-pyrrolo[2,1-f][1,2,4]triazin-2-ylamino]-phenyl}-piperidin-1-yl)-propan-2-ol]",–,–,100 to 1000,< 100
"COc1cc(N2CCC(N3CCC(F)(F)CC3)CC2)ccc1Nc1ncc2ccc(-c3ccccc3N(C)S(C)(=O)=O)n2n1 [Example 1474, N-(2-{2-[4-(4,4-Difluoro-[1,4′]bipiperidinyl-1′-yl)-2-methoxy-phenylamino]-pyrrolo[2,1-f][1,2,4]triazin-7-yl}-phenyl)-N-methyl-methanesulfonamide]",–,–,< 100,100 to 1000
"CN(C)S(=O)(=O)c1ccc(Nc2ncc3ccc(-c4cccc(S(=O)(=O)NC(C)(C)C)c4)n3n2)cc1 [Example 593, 4-({7-[3-(tert-butylsulfamoyl)phenyl]pyrrolo[2,1-f][1,2,4]triazin-2-yl}amino)-N,N-dimethylbenzenesulfonamide]",> 10000,< 100,–,–

# Continued, values first:
IC50 (ALK; [1]) [nM],IC50 (JAK2; [2]) [nM],IC50 (ALK; ALK Kinase Inhibition) [nM],IC50 (JAK2; JAK2 Kinase Inhibition) [nM],Molecule
100 to 1000,< 100,–,–,"COc1ccccc1-c1ccc2cnc(Nc3ccc4c(c3)OCC(=O)N4C)nn12 [Example 647, 7-[7-(2-Methoxy-phenyl)-pyrrolo[2,1-f][1,2,4]triazin-2-ylamino]-4-methyl-4H-benzo[1,4]oxazin-3-one]"
100 to 1000,< 100,–,–,"CN1CCC(c2ccc(Nc3ncc4ccc(-c5cccnc5)n4n3)cc2)CC1 [Example 1179, [4-(1-Methyl-piperidin-4-yl)-phenyl]-(7-pyridin-3-yl-pyrrolo[2,1-f][1,2,4]triazin-2-yl)-amine]"
–,–,< 100,< 100,"CS(=O)(=O)Nc1cccc(-c2ccc3cnc(Nc4ccc(N5CCN(CCO)CC5)cc4)nn23)c1 [Example 380, N-[3-(2-{4-[4-(2-Hydroxy-ethyl)-piperazin-1-yl]-phenylamino}-pyrrolo[2,1-f][1,2,4]triazin-7-yl)-phenyl]-methanesulfonamide]"
–,–,100 to 1000,< 100,"COc1ccc(Nc2ncc3ccc(-c4cc(Cl)ccc4OC)n3n2)cc1OC [Example 151, [7-(5-Chloro-2-methoxy-phenyl)-pyrrolo[2,1-f][1,2,4]triazin-2-yl]-(3,4-dimethoxy-phenyl)-amine]"
1000 to 10000,< 100,–,–,"COc1ccc(-c2ccc3cnc(Nc4ccc5nc(CO)[nH]c5c4)nn23)cn1 [Example 1069, {6-[7-(6-Methoxy-pyridin-3-yl)-pyrrolo[2,1-f][1,2,4]triazin-2-ylamino]-1H-benzoimidazol-2-yl}-methanol]"
1000 to 10000,< 100,–,–,"CN1CCN(c2cccc(Nc3ncc4ccc(-c5cnn(C)c5)n4n3)c2)CC1 [Example 969, [3-(4-Methyl-piperazin-1-yl)-phenyl]-[7-(1-methyl-1H-pyrazol-4-yl)-pyrrolo[2,1-f][1,2,4]triazin-2-yl]-amine]"
100 to 1000,< 100,–,–,"CN(c1ccccc1-c1ccc2cnc(Nc3ccc4cnn(C)c4c3)nn12)S(C)(=O)=O [Example 1340, N-Methyl-N-{2-[2-(1-methyl-1H-indazol-6-ylamino)-pyrrolo[2,1-f][1,2,4]triazin-7-yl]-phenyl}-methanesulfonamide]"
100 to 1000,< 100,–,–,"CN1C(=O)COc2cc(Nc3ncc4ccc(-c5ccccc5N(C)S(C)(=O)=O)n4n3)ccc21 [Example 640, N-Methyl-N-{2-[2-(4-methyl-3-oxo-3,4-dihydro-2H-benzo[1,4]oxazin-7-ylamino)-pyrrolo[2,1-f][1,2,4]triazin-7-yl]-phenyl}-methanesulfonamide]"
< 100,< 100,–,–,"Cc1cc(Nc2ncc3ccc(-c4cccc(S(C)(=O)=O)c4)n3n2)ccc1C1CCN(C)CC1 [Example 946, [7-(3-Methanesulfonyl-phenyl)-pyrrolo[2,1-f][1,2,4]triazin-2-yl]-[3-methyl-4-(1-methyl-piperidin-4-yl)-phenyl]-amine]"
1000 to 10000,< 100,–,–,"CC(C)c1nc2ccc(Nc3ncc4ccc(-c5cccc(S(=O)(=O)NC(C)(C)C)c5)n4n3)cc2[nH]1 [Example 1329, N-tert-Butyl-3-[2-(2-isopropyl-3H-benzimidazol-5-ylamino)-pyrrolo[2,1-f][1,2,4]triazin-7-yl]-benzenesulfonamide]"
–,–,100 to 1000,< 100,"O=S(=O)(NCCO)c1cccc(-c2ccc3cnc(Nc4ccc(N5CCOCC5)cc4)nn23)c1 [Example 368, N-(2-Hydroxy-ethyl)-3-[2-(4-morpholin-4-yl-phenylamino)-pyrrolo[2,1-f][1,2,4]triazin-7-yl]-benzenesulfonamide]"
–,–,100 to 1000,< 100,"COc1ncccc1-c1ccc2cnc(Nc3ccc(N4CCOCC4)cc3)nn12 [Example 16, [7-(2-Methoxy-pyridin-3-yl)-pyrrolo[2,1-f][1,2,4]triazin-2-yl]-(4-morpholin-4-yl-phenyl)-amine]"
–,–,1000 to 10000,< 100,"CN(c1cccc(-c2ccc3cnc(Nc4ccc(N5CCOCC5)cc4)nn23)c1)S(C)(=O)=O [Example 420, N-Methyl-N-{3-[2-(4-morpholin-4-yl-phenylamino)-pyrrolo[2,1-f][1,2,4]triazin-7-yl]-phenyl}-methanesulfonamide]"

# Source: patent US8471005B2 (Cephalon, Inc., priority 2008, dated 2013)
